# Test results from ChEMBL document CHEMBL4251615, “Discovery of anilino-furo[2,3-d]pyrimidine derivatives as dual inhibitors of EGFR/HER2 tyrosine kinase and their anticancer activity” (Eur J Med Chem, 2018).
# Columns and labels:
# M14 = assay: Growth inhibition of human M14 cells assessed as cell growth at 10 uM incubated for 48 hrs by sulforhodamine B assay relative to control; format: functional; conditions: M14, 48 h, read-out: Activity
# BT-549 = assay: Growth inhibition of human BT549 cells assessed as cell growth at 10 uM incubated for 48 hrs by sulforhodamine B assay relative to control; format: functional; conditions: BT-549, 48 h, read-out: Activity
# MDA-MB-468 = assay: Growth inhibition of human MDA-MB-468 cells assessed as cell growth at 10 uM incubated for 48 hrs by sulforhodamine B assay relative to control; format: functional; conditions: MDA-MB-468, 48 h, read-out: Activity
# SK-MEL-2 = assay: Growth inhibition of human SK-MEL-2 cells assessed as cell growth at 10 uM incubated for 48 hrs by sulforhodamine B assay relative to control; format: functional; conditions: SK-MEL-2, 48 h, read-out: Activity
# NCI-H322M = assay: Growth inhibition of human NCI-H322M cells assessed as cell growth at 10 uM incubated for 48 hrs by sulforhodamine B assay relative to control; format: functional; conditions: read-out: Activity
# NCI-H460 = assay: Growth inhibition of human NCI-H460 cells assessed as cell growth at 10 uM incubated for 48 hrs by sulforhodamine B assay relative to control; format: functional; conditions: NCI-H460, 48 h, read-out: Activity
# HOP-92 = assay: Growth inhibition of human HOP92 cells assessed as cell growth at 10 uM incubated for 48 hrs by sulforhodamine B assay relative to control; format: functional; conditions: HOP-92, 48 h, read-out: Activity
# HCC 2998 = assay: Growth inhibition of human HCC2998 cells assessed as cell growth at 10 uM incubated for 48 hrs by sulforhodamine B assay relative to control; format: functional; conditions: HCC 2998, 48 h, read-out: Activity
# UACC-62 = assay: Growth inhibition of human UACC62 cells assessed as cell growth at 10 uM incubated for 48 hrs by sulforhodamine B assay relative to control; format: functional; conditions: UACC-62, 48 h, read-out: Activity
# KM12 = assay: Growth inhibition of human KM12 cells assessed as cell growth at 10 uM incubated for 48 hrs by sulforhodamine B assay relative to control; format: functional; conditions: KM12, 48 h, read-out: Activity
# OVCAR-8 = assay: Growth inhibition of human OVCAR8 cells assessed as cell growth at 10 uM incubated for 48 hrs by sulforhodamine B assay relative to control; format: functional; conditions: OVCAR-8, 48 h, read-out: Activity
# U-251 = assay: Growth inhibition of human U251 cells assessed as cell growth at 10 uM incubated for 48 hrs by sulforhodamine B assay relative to control; format: functional; conditions: U-251, 48 h, read-out: Activity
# SK-OV-3 = assay: Growth inhibition of human SKOV3 cells assessed as cell growth at 10 uM incubated for 48 hrs by sulforhodamine B assay relative to control; format: functional; conditions: SK-OV-3, 48 h, read-out: Activity
# TK-10 = assay: Growth inhibition of human TK10 cells assessed as cell growth at 10 uM incubated for 48 hrs by sulforhodamine B assay relative to control; format: functional; conditions: TK-10, 48 h, read-out: Activity
# SN12C = assay: Growth inhibition of human SN12C cells assessed as cell growth at 10 uM incubated for 48 hrs by sulforhodamine B assay relative to control; format: functional; conditions: read-out: Activity
# MDA-MB-231 = assay: Growth inhibition of human MDA-MB-231 cells assessed as cell growth at 10 uM incubated for 48 hrs by sulforhodamine B assay relative to control; format: functional; conditions: MDA-MB-231, 48 h, read-out: Activity
# DU-145 = assay: Growth inhibition of human DU145 cells assessed as cell growth at 10 uM incubated for 48 hrs by sulforhodamine B assay relative to control; format: functional; conditions: DU-145, 48 h, read-out: Activity
# NCI-H226 = assay: Growth inhibition of human NCI-H226 cells assessed as cell growth at 10 uM incubated for 48 hrs by sulforhodamine B assay relative to control; format: functional; conditions: NCI-H226, 48 h, read-out: Activity
# A498 = assay: Growth inhibition of human A498 cells assessed as cell growth at 10 uM incubated for 48 hrs by sulforhodamine B assay relative to control; format: functional; conditions: A498, 48 h, read-out: Activity
# HT-29 = assay: Growth inhibition of human HT-29 cells assessed as cell growth at 10 uM incubated for 48 hrs by sulforhodamine B assay relative to control; format: functional; conditions: HT-29, 48 h, read-out: Activity
# HL-60(TB) = assay: Growth inhibition of human HL-60(TB) cells assessed as cell growth at 10 uM incubated for 48 hrs by sulforhodamine B assay relative to control; format: functional; conditions: HL-60, 48 h, read-out: Activity
# ACHN = assay: Growth inhibition of human ACHN cells assessed as cell growth at 10 uM incubated for 48 hrs by sulforhodamine B assay relative to control; format: functional; conditions: read-out: Activity
# SNB-75 = assay: Growth inhibition of human SNB75 cells assessed as cell growth at 10 uM incubated for 48 hrs by sulforhodamine B assay relative to control; format: functional; conditions: SNB-75, 48 h, read-out: Activity
# Hs-578T = assay: Growth inhibition of human Hs 578T cells assessed as cell growth at 10 uM incubated for 48 hrs by sulforhodamine B assay relative to control; format: functional; conditions: read-out: Activity
# HCT-116 = assay: Growth inhibition of human HCT116 cells assessed as cell growth at 10 uM incubated for 48 hrs by sulforhodamine B assay relative to control; format: functional; conditions: HCT-116, 48 h, read-out: Activity
# [1] = target: Epidermal growth factor receptor (Homo sapiens, UniProt P00533); assay: Inhibition of recombinant human C-terminal His/N-terminal GST-tagged EGFR (668 to 1210 residues) expressed in baculovirus infected Sf9 cells at 10 uM using biotin-labeled poly[Glu:Tyr] (4:1) as substrate after 30 mins by Kinase-Glo plus luminescence assay relative to control
# Sequence of Epidermal growth factor receptor (P00533 whole entry, the tested form may be a part): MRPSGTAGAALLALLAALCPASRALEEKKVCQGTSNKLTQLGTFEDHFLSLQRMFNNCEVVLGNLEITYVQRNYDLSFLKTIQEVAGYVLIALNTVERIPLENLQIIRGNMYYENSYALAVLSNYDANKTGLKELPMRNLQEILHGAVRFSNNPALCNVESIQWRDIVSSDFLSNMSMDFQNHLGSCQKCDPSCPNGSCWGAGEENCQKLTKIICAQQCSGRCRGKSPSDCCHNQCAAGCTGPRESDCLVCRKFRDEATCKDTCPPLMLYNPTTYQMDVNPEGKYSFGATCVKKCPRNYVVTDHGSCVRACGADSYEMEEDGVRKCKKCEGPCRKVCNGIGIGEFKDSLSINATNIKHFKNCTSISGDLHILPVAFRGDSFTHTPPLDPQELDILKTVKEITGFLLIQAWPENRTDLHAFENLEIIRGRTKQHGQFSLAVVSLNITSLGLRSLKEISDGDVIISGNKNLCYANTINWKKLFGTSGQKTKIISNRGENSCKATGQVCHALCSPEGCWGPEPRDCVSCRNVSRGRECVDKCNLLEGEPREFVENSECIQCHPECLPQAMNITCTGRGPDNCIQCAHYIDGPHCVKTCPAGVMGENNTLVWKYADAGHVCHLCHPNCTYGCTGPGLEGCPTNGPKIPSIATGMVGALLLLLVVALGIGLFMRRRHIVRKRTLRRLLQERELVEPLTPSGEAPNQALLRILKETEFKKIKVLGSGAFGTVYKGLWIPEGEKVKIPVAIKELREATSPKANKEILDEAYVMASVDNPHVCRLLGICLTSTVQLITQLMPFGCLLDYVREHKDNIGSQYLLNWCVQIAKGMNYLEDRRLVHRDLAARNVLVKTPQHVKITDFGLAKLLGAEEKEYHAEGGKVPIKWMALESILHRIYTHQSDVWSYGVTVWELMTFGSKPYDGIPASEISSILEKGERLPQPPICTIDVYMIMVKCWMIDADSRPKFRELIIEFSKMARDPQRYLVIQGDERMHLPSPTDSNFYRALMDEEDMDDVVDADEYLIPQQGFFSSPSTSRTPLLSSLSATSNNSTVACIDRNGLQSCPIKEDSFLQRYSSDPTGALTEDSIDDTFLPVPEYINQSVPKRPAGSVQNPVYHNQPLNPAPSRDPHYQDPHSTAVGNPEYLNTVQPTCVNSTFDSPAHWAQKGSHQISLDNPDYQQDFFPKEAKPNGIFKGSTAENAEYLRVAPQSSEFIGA
SMILES,growth at 10 µM (M14),growth at 10 µM (BT-549),growth at 10 µM (MDA-MB-468),growth at 10 µM (SK-MEL-2),growth at 10 µM (NCI-H322M),growth at 10 µM (NCI-H460),growth at 10 µM (HOP-92),growth at 10 µM (HCC 2998),growth at 10 µM (UACC-62),growth at 10 µM (KM12),growth at 10 µM (OVCAR-8),growth at 10 µM (U-251),growth at 10 µM (SK-OV-3),growth at 10 µM (TK-10),growth at 10 µM (SN12C),growth at 10 µM (MDA-MB-231),growth at 10 µM (DU-145),growth at 10 µM (NCI-H226),growth at 10 µM (A498),growth at 10 µM (HT-29),other results
CCCNC(=O)c1c(C)oc2ncnc(Nc3cccc(Cl)c3)c12,115%,102%,81.7%,85.6%,103%,107%,57.2%,123%,83.4%,94.6%,96.8%,90.9%,85.6%,94.1%,99.4%,88.2%,90%,90%,74.3%,93.8%,growth at 10 µM (HL-60(TB)): 96.3%; growth at 10 µM (ACHN): 107%; growth at 10 µM (SNB-75): 94.6%; growth at 10 µM (Hs-578T): 104%; growth at 10 µM (HCT-116): 105%; inhibition [1]: 65%
Cc1oc2ncnc(Nc3cccc(Cl)c3)c2c1CO,94%,81.9%,69.1%,98.1%,95%,94%,90.5%,93.2%,76.4%,91.4%,108%,92.3%,101%,65.2%,88.6%,76.5%,86.2%,80.6%,51.6%,90.5%,growth at 10 µM (HL-60(TB)): 54%; growth at 10 µM (ACHN): 76.7%; growth at 10 µM (SNB-75): 86.5%; growth at 10 µM (Hs-578T): 96.2%; growth at 10 µM (HCT-116): 81.6%; inhibition [1]: 69%
Cc1cccc(Nc2ncnc3oc(C)c(C(=O)NCCO)c23)c1,103%,90.7%,87%,113%,95%,102%,94.1%,99.4%,83.1%,93.9%,104%,105%,94.8%,102%,97.1%,84.1%,103%,93.3%,74.7%,99.8%,growth at 10 µM (HL-60(TB)): 84.6%; growth at 10 µM (ACHN): 94.8%; growth at 10 µM (SNB-75): 110%; growth at 10 µM (Hs-578T): 100%; growth at 10 µM (HCT-116): 93%; inhibition [1]: 36%
CCOC(=O)c1c(C)oc2ncnc(Nc3ccc(F)cc3)c12,103%,98.5%,103%,103%,101%,100%,90.8%,108%,88.6%,97.6%,106%,98%,104%,96.5%,92.9%,86.8%,101%,100%,80.4%,95.3%,growth at 10 µM (ACHN): 99%; growth at 10 µM (SNB-75): 94.7%; growth at 10 µM (Hs-578T): 96.1%; growth at 10 µM (HCT-116): 98.9%; inhibition [1]: 6%
Cc1oc2ncnc(Nc3cccc(F)c3)c2c1C(=O)NCCO,109%,96.3%,106%,103%,104%,105%,101%,114%,92.2%,97.9%,105%,104%,89.2%,90.1%,98.7%,91.2%,105%,106%,83%,96.8%,growth at 10 µM (ACHN): 103%; growth at 10 µM (SNB-75): 92.2%; growth at 10 µM (Hs-578T): 103%; growth at 10 µM (HCT-116): 105%; inhibition [1]: 20%
